# Reference: article PMC7600309, “Completing the Enalaprilat Excretion Pathway—Renal Handling by the Proximal Tubule” (Pharmaceutics, 2020)
# pKi: −log10 of the molar value. Structures can show the parent of a compound that is named as a salt. Non-standard residues stand in square brackets, D forms with d. Residues, ends and D or L forms follow the SMILES beside them. Sar = CNCC(=O)O
# Key:
# URAT1 = molecular target: T1, URAT1 (Homo sapiens, UniProt Q96S37); assay: model substrate uptake vs control cells; type: cell-based
# T1 construct: gene SLC22A12; NM_144585.3, baculovirus-transduced HEK293 cells
# T1 sequence (Q96S37 1-553): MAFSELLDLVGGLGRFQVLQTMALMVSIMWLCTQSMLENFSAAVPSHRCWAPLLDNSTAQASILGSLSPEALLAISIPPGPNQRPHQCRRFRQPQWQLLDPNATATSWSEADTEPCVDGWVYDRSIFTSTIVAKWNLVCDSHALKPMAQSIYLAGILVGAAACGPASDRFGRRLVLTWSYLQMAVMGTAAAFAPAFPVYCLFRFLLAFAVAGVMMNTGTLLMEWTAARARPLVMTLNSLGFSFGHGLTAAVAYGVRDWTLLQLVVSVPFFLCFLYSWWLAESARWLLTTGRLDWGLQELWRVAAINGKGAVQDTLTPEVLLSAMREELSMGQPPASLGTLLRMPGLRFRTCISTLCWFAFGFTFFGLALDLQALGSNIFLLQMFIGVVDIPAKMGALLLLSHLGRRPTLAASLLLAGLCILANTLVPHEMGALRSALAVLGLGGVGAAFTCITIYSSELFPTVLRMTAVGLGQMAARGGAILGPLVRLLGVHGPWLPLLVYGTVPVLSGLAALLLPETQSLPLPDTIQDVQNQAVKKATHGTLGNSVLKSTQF
# OAT3 [1] = molecular target: T2, OAT3 (Homo sapiens, UniProt Q8TCC7); assay: radiolabelled model substrate uptake ([…]); type: cell-based
# T2 construct: gene SLC22A8; NM_004254.3, baculovirus-transduced HEK293 cells
# T2 sequence (Q8TCC7 1-542): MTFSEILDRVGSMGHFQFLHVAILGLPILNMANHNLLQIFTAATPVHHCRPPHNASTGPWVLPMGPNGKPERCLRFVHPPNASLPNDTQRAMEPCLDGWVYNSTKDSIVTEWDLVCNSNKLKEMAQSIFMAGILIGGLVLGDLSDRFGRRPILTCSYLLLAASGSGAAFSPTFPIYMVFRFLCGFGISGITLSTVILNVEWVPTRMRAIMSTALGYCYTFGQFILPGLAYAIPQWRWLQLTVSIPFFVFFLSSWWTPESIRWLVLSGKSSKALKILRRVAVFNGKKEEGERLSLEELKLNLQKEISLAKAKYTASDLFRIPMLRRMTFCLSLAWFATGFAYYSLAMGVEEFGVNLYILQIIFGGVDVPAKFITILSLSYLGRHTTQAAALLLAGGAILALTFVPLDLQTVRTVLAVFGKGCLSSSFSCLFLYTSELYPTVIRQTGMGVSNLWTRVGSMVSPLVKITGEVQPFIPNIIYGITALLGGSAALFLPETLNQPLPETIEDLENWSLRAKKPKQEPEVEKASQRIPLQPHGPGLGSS
# PEPT2 = molecular target: T3, PEPT2 (Homo sapiens, UniProt Q16348); assay: radiolabelled model substrate uptake vs control cells; type: cell-based
# T3 construct: gene SLC15A2; NM_021082.3, baculovirus-transduced HEK293 cells
# T3 sequence (Q16348 1-729): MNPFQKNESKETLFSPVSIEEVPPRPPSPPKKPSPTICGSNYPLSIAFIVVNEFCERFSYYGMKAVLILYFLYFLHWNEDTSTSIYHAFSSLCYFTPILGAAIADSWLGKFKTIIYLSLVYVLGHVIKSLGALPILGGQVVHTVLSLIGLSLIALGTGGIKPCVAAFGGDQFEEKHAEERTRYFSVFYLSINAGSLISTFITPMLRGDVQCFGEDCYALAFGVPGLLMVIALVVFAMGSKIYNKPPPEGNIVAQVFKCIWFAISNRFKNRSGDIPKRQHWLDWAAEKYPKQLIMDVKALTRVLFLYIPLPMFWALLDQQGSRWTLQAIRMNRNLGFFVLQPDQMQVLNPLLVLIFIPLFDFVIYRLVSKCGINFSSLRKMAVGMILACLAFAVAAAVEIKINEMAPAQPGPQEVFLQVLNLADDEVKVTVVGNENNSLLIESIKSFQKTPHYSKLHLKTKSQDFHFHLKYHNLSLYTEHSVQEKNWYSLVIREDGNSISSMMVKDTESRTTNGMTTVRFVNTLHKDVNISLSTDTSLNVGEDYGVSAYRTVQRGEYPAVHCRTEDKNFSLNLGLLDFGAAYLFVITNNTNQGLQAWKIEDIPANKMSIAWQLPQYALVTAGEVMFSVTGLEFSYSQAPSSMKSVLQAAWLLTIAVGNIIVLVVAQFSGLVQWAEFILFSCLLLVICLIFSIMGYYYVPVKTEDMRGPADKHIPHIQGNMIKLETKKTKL
# PEPT1 = molecular target: T4, PEPT1 (Homo sapiens, UniProt P46059); assay: as above; type: cell-based
# T4 construct: gene SLC15A1; NM_005073.3, baculovirus-transduced HEK293 cells
# T4 sequence (P46059 1-708): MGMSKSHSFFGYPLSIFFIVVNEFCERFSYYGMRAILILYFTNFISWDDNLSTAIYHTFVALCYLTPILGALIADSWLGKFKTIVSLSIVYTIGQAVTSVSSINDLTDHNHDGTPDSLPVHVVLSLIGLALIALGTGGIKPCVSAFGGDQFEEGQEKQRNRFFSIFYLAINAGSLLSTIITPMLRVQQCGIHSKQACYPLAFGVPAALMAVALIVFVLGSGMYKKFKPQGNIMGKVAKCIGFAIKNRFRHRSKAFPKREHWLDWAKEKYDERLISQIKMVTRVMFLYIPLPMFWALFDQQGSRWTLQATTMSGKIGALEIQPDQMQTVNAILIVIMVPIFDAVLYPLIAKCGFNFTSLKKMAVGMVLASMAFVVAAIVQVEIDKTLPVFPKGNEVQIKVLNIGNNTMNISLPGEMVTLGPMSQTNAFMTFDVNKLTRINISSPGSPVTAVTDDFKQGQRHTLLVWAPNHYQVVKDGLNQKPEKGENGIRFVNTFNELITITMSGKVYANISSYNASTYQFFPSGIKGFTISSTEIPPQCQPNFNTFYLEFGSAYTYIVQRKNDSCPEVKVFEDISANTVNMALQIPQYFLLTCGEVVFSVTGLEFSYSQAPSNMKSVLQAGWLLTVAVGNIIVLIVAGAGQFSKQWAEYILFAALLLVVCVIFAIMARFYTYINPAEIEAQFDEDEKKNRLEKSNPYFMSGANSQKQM
# OCTN2 = molecular target: T5, OCTN2 (Homo sapiens, UniProt O76082); assay: as above; type: cell-based
# T5 construct: gene SLC22A5; NM_003060.3, baculovirus-transduced HEK293 cells
# T5 sequence (O76082 1-557): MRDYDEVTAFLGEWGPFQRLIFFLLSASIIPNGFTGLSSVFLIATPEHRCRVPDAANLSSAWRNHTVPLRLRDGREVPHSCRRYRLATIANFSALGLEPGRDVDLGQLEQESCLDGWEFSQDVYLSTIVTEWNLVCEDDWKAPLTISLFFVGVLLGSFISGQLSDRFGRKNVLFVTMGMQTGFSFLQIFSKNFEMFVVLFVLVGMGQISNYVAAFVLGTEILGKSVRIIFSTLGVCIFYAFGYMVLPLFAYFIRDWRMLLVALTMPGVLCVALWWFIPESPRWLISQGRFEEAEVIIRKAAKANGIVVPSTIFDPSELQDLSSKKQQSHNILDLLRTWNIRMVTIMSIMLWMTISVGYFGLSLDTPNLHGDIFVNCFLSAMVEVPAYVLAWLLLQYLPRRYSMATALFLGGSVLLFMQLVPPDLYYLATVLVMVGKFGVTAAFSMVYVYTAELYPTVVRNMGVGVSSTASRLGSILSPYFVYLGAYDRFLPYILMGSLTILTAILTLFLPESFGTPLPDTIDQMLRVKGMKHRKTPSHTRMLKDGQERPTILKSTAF
# OCTN1 = molecular target: T6, OCTN1 (Homo sapiens, UniProt Q9H015); assay: as above; type: cell-based
# T6 construct: gene SLC22A4; NM_003059.2, baculovirus-transduced HEK293 cells
# T6 sequence (Q9H015 1-551): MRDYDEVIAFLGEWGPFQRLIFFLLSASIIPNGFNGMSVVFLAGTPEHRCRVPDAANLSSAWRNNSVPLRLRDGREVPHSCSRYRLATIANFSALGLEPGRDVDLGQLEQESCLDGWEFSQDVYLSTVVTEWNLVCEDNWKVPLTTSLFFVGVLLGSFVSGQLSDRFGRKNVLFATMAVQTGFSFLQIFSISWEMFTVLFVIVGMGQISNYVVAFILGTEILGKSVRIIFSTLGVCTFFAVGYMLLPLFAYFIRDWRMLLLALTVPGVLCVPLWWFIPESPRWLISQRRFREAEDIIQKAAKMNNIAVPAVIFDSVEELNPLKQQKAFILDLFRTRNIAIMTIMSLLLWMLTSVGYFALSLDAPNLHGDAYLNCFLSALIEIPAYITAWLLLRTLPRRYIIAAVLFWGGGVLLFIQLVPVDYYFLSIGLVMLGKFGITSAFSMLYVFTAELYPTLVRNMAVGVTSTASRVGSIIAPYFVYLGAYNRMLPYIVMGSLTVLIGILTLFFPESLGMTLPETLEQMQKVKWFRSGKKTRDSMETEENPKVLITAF
# OAT2 = molecular target: T7, OAT2 (Homo sapiens, UniProt Q9Y694); assay: as above; type: cell-based
# T7 construct: gene SLC22A7; NM_006672, baculovirus-transduced HEK293 cells
# T7 sequence (Q9Y694 1-548): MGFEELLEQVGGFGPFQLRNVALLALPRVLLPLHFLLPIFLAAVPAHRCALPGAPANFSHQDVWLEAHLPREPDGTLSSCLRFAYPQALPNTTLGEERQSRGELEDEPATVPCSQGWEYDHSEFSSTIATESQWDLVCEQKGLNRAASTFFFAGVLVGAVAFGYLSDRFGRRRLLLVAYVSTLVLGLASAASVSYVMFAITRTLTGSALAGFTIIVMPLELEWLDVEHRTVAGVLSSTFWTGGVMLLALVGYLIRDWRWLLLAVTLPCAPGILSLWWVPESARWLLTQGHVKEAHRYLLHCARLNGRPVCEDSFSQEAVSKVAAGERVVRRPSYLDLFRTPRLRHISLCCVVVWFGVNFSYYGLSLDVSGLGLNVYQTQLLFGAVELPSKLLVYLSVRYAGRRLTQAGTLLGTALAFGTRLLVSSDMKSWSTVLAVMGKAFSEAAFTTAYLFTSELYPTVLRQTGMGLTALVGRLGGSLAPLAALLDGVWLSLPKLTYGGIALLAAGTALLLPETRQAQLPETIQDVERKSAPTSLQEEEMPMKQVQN
# OAT3 [2] = molecular target: T2, OAT3; assay: inhibition of [3H]-E1S uptake (Ki); LC-MS/MS uptake in OAT3-HEK293 cells (Km […]); type: cell-based
# OAT4 = molecular target: T8, OAT4 (Homo sapiens, UniProt Q9NSA0)
# T8 construct: gene SLC22A11
# T8 sequence (Q9NSA0 whole entry): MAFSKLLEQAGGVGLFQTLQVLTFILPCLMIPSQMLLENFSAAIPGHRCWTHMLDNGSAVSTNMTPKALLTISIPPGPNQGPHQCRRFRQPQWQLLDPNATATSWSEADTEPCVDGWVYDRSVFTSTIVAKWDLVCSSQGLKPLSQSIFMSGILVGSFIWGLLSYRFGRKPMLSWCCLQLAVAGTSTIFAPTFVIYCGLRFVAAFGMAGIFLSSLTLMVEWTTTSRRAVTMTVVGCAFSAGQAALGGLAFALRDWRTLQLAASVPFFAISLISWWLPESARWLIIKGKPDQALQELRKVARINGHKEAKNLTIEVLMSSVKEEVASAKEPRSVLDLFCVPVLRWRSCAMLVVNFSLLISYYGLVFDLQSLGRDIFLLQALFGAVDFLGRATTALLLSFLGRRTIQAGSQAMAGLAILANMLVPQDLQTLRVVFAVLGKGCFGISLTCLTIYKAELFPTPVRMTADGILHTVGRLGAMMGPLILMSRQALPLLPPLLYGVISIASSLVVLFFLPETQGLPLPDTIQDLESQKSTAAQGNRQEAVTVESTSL
smiles,measurement,setting,value
O=c1[nH]c(=O)c2[nH]c(=O)[nH]c2[nH]1 [Urate],model substrate uptake vs control cells,URAT1,"OAT2, OAT4, PEPT1, PEPT2, URAT1, OCTN1, and OCTN2 all showed a significant transport ratio compared to control cells"
C[C@]12CC[C@@H]3c4ccc(OS(=O)(=O)O)cc4CC[C@H]3[C@@H]1CCC2=O [[^3H]-Estrone sulfate],radiolabelled model substrate uptake (20 nM),OAT3 [1],Transport of [^3H]-E1S by OAT3 was determined in the presence of increasing enalaprilat concentrations
CN(CC(=O)O)C(=O)CN [[^3H]-Glycyl-sarcosine] (H-Gly-[Sar]-OH),radiolabelled model substrate uptake vs control cells,PEPT2,"OAT2, OAT4, PEPT1, PEPT2, URAT1, OCTN1, and OCTN2 all showed a significant transport ratio compared to control cells"
same,radiolabelled model substrate uptake vs control cells,PEPT1,"OAT2, OAT4, PEPT1, PEPT2, URAT1, OCTN1, and OCTN2 all showed a significant transport ratio compared to control cells"
C[N+](C)(C)C[C@H](O)CC(=O)[O-] [[^14C]-Carnitine],radiolabelled model substrate uptake vs control cells,OCTN2,"OAT2, OAT4, PEPT1, PEPT2, URAT1, OCTN1, and OCTN2 all showed a significant transport ratio compared to control cells"
same,radiolabelled model substrate uptake vs control cells,OCTN1,"OAT2, OAT4, PEPT1, PEPT2, URAT1, OCTN1, and OCTN2 all showed a significant transport ratio compared to control cells"
Nc1ccc(C(=O)NCC(=O)O)cc1 [[^14C]-para-aminohippuric acid],radiolabelled model substrate uptake vs control cells,OAT2,"OAT2, OAT4, PEPT1, PEPT2, URAT1, OCTN1, and OCTN2 all showed a significant transport ratio compared to control cells"
C[C@H](N[C@@H](CCc1ccccc1)C(=O)O)C(=O)N1CCC[C@H]1C(=O)O [enalaprilat],pKi,OAT3 [2],3.87
same,Km,OAT4,> 1000 µM
